According to patent publication US6071709A, “Nerve growth factor/receptor complex” (The United States of America as represented by the …, priority 1992, dated 2000):
Entries after “also recorded” stand apart in the source; their conditions may differ.

Columns and labels:
p140^prototrk = assay: NGF-dependent trk tyrosine phosphorylation in SY5Y cells; assay type: cell-based, human; conditions: 100 ng/ml NGF for 5 min
Description: FIGS. 4A-B show NGF-dependent tyrosine phosphorylation of gp140trk in the human neuroblastoma cell lines LA-N-5, SY5Y, and dorsal root ganglia from mouse embryos. FIG. 4A, gp140trk was immunoprecipitated from untreated (-) or NGF treated (+) LA-N-5 cells (K. H. Sonnenfeld and D. N. Ishii, J. Neurosci. Res. 8:375-391 (1982)), SY5Y cells (K. H. Sonnenfeld and D. N. Ishii, (1982)), NR18 cells (M. A. Bothwell et al., Cell 21:857-866 (1980)), or PC12 cells. Immunoprecipitates were probed with P-tyr antibodies. The differences in trk protein mobilities are due to differences in glycosylation. FIG. 4B, Tyrosine phosphorylation of gp140trk in DRGs from 13.5 day or 14.5 day embryonic mice. DRGs were maintained in 100 ng/ml NGF for ≥10 min prior to lysis and immunoprecipitation with trk antibodies. trk immunoprecipitates were probed with P-tyr antibody. Tyrosine phosphorylated gp140trk from NGF-treated (+) PC12 cells or untreated (-) PC12 cells is shown for comparison. Samples were normalized for cell protein. Molecular weight markers in kDa are indicated.
Cell lines were treated with 100 ng/ml NGF for 5 min and gp140trk immunoprecipitated as in FIG. 1. DRGs were prepared by dissection for 13.5 or 14.5 day mouse embryos. […] Lysates were immunoprecipitated with trk antibody and the trk proteins were analyzed by antiphosphotyrosine immunoblots. […]

gp145^trkB = gp145^trkB tyrosine phosphorylation in trkB-expressing NIH 3T3 cells (pJM8 lines), immunoprecipitation and α-Ptyr Western; assay type: cell-based, rat; conditions: pJM8 trkB-expressing NIH 3T3 cells, 100 ng/ml factor, 5 min
Protocol: A 4.8 kb cDNA encompassing the coding domain of rat trkB (Middlemas et al., (1991)) was cloned into the pMEX plasmid (pJM8) downstream of the MSV promoter. NIH 3T3 cells were cotransfected with the pJM8 plasmid and a plasmid containing the neomycin phosphotransferase gene (L. F. Parada et al., Nature 312:649-651 (1984)), and G418-resistant colonies were selected. PC12 cells (Greene and Tischler, 1976) were grown in DMEM with 10% horse serum and 5% fetal calf serum. NIH 3T3 cells and the derivative cells lines were maintained in DMEM medium containing 10% calf serum. All cells were maintained in a humidified incubator at 37° C. in 5% CO2.
Approximately 10^7 cells were treated at 37° C. for 5 min with 100 ng/ml growth factors or at the concentrations and lengths of time noted in the text. NP-40 plate lysis and gp145^trkB immunoprecipitation with anti-serum 443 were performed as previously described (Kaplan et al., (1990), (1991)). The phosphotyrosine content was analyzed by Western transfer using monoclonal antibody 4G10 as previously described (Morrison et al., (1989)).
The product of the trk proto-oncogene (gp140^proto-trk) is tyrosine phosphorylated in response to NGF in PC12 cells, NGF-responsive neuroblastoma cells, heterologous fibroblasts and Xenopus oocytes (Kaplan et al., (1991); A. R. Nebreda et al., Science 252:558-560 (1991); Klein et al., (1991)). Next it was examined whether NGF elicited tyrosine phosphorylation of gp145^trkB in trkB-expressing NIH 3T3 cells. Cell line pJM8-3 was treated with high concentrations of NGF (100 ng/ml) for 5 minutes. The cells were lysed, immunoprecipitated with anti-trkB antiserum 443, transferred to nitrocellulose filters and probed with anti-phosphotyrosine (α-Ptyr) antibodies. As a negative control, untransfected NIH-3T3 cells were treated in parallel, while PC12 cells were used as a positive control for NGF responsiveness (Kaplan et al., (1991)).
BDNF and NT-3 are neurotrophic factors that display many functional and structural features that are reminiscent of NGF. The genes encoding BDNF and NT-3 have recently been cloned and used to express high levels of the biologically active factors in pure form (A. Rosenthal et al., Neuron 4:773 (1990)). It was tested whether these NGF-related neurotrophic factors would stimulate phosphorylation of the trkB glycoprotein by exposing the pJM-8 cell lines to 100 ng/ml of NGF, BDNF, or NT-3 (~4 nM) for 5 minutes. The cells were then lysed and the lysates incubated with a trkB anti-peptide antiserum (443) with or without excess peptide. After transfer to nitrocellulose filters, the trkB proteins were probed with an anti-phosphotyrosine (α-ptyr) monoclonal antibody (FIG. 10) (Kaplan et al. (1991)). […] Thus, both neurotrophic factors NT-3 and BDNF can elicit tyrosine phosphorylation of gp145^trkB in a manner similar to that observed for NGF stimulation of the trk receptor. Similar results have been obtained with NT-3 and BDNF in Rat2 cells expressing trkB.
Having detected gp145^trkB phosphorylation in response to BDNF and NT-3, it was next determined whether unrelated polypeptide growth factors were capable of eliciting a similar response. Platelet-derived growth factor (PDGF; 100 ng/ml), epidermal growth factor (EGF; 100 ng/ml), insulin (100 ng/ml), and basic fibroblast growth factor (bFGF; 100 ng/ml), were added independently to exponentially growing cultures of pJM8-3 cells.
The previous studies were done in the presence of high concentrations of neurotrophic factors. Dose response experiments were next performed to determine the range of concentrations at which phosphorylation of the trkB receptor was stimulated by NT-3 or BDNF. Cells were incubated with quantities of NT-3 or BDNF ranging from 0.1 ng/ml to 250 ng/ml and treated as described in FIG. 12. […]

NGF: neurotrophic polypeptide factor, nerve growth factor; ligand of trk proto-oncogene receptor
p140^prototrk tyrosine phosphorylation (p140^prototrk): enhanced | tyrosine phosphorylation of gp145^trkB (gp145^trkB): no increase in phosphorylation; also recorded: no detectable effect
